Experimental data: paper PMC3179181 (Journal of medicinal chemistry, 2010)
“Also recorded” adds a separate entry of the source.

Tests used:
PLD1 = target: T1, PLD1 (Homo sapiens, UniProt Q13393); experiment: cell-based
T1 sequence (Q13393 1-1074): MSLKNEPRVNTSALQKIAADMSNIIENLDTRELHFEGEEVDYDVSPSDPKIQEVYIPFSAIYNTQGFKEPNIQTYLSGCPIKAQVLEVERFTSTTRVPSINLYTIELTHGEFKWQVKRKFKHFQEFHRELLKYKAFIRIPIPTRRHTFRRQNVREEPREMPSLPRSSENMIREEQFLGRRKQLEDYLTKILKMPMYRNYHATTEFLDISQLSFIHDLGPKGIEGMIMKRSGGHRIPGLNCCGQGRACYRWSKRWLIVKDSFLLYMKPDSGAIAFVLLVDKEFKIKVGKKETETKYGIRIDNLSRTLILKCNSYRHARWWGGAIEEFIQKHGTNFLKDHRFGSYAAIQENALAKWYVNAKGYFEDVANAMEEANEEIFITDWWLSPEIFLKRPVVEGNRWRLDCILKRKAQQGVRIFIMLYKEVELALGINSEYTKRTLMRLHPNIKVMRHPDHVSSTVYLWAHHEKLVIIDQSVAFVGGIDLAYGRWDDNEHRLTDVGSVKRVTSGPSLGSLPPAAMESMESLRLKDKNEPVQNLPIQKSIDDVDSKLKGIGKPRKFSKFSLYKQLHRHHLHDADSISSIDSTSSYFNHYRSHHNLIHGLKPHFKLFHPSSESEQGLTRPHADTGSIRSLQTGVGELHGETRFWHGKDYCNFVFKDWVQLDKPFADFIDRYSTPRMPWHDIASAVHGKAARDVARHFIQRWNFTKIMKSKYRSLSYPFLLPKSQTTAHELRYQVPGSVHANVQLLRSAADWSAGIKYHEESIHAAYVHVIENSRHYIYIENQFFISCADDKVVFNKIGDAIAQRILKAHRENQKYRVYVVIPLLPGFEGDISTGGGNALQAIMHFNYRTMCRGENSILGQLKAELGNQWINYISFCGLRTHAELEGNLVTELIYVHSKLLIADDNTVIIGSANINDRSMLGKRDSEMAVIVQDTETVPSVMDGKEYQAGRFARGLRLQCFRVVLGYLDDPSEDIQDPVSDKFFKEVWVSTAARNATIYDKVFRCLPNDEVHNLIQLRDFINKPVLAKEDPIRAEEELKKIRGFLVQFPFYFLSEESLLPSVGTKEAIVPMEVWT

PLD2 [1] = target: T2, PLD2 (Homo sapiens, UniProt O14939)
PLD2 [2] = target: T2, PLD2; experiment: cell-based
Caspase 3 and 7 = experiment: Caspase 3/7 activity; type: cell-based; conditions: 48 hours, 10 μM, versus vehicle; for Caspase 3 and 7 activity: serum free
[3] = rat

T2 sequence (O14939 whole entry): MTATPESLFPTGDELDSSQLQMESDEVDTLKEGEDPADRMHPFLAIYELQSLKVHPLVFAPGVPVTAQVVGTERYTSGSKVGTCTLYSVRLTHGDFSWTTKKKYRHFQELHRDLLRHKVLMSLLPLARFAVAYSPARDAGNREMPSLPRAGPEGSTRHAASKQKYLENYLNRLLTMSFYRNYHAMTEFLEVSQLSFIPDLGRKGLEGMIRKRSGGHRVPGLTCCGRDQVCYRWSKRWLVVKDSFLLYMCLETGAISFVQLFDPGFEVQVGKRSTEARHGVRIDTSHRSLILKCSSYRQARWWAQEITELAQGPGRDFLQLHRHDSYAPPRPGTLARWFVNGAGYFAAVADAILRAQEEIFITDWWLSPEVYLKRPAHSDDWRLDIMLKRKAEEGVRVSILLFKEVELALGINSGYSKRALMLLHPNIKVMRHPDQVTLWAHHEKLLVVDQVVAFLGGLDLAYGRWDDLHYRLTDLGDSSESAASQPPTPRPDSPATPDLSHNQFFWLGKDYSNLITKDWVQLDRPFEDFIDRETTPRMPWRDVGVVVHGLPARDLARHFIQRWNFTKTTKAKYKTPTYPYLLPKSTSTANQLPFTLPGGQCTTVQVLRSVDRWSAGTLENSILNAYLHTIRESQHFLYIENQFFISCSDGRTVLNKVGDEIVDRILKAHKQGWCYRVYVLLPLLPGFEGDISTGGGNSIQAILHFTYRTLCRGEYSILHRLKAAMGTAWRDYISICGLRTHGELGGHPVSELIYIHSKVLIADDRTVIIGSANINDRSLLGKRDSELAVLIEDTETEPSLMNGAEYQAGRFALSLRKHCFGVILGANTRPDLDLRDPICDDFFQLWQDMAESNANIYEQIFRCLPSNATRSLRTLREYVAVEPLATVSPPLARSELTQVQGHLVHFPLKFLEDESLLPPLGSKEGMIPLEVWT

SMILES	IC50 (PLD1)	Fold PLD2 Selective (PLD2 [1])	IC50 (PLD2 [2])	increase in Caspase 3 and 7 activity (Caspase 3 and 7; 10% FBS)	Caspase 3 and 7 activity (Caspase 3 and 7)	plasma protein binding (% bound) [3]
C[C@@H](CN1CCC2(CC1)C(=O)NCN2c1ccc(F)c(F)c1)NC(=O)c1ccc2ccccc2c1.O=C(O)C(F)(F)F [24a, (S)-N-(1-(1-(3,4-difluorophenyl)-4-oxo-1,3,8-triazaspiro[4.5]decan-8-yl)propan-2-yl)-2-naphthamide 2,2,2-trifluoroacetate]	2800 nM	23 fold	120 nM			
C[C@@H](CN1CCC(n2c(=O)[nH]c3cc(Br)ccc32)CC1)NC(=O)[C@H]1C[C@@H]1c1ccccc1 [compound 14]				marginal increase; also recorded: fairly resistant to PLD inhibitor treatment	increased Caspase 3 & 7 activity	
O=C(NCCN1CCC2(CC1)C(=O)NCN2c1cccc(F)c1)c1ccc2ccccc2c1 [22a, N-(2-(1-(3-fluorophenyl)-4-oxo-1,3,8-triazaspiro[4.5]decan-8-yl)ethyl)-2-naphthamide]					increased Caspase 3 & 7 activity	97.9 % bound
